Measurements as given in patent publication US9233915B2, “Polyunsaturated fatty acid monoglycerides, derivatives, and uses thereof” (SCF PHARMA INC., priority 2007, dated 2016).

Assays:
[1] = tested on: HCT116 human colon cancer cell line; assay: cell growth assay (trypan blue cell count) on HCT116; type: cell-based; conditions: HCT-116, 48 h, read-out: growth inhibition of the cancer cells
Method: (§1) The A549 and HCT-116 cells were maintained in RPMI 1640 or McCoy's 5A (Wisent, St-Bruno, QC, Canada) containing 10% FBS and 10 units/ml penicillin, 100 μg/ml streptomycin. Cells were grown in a 5% CO2 incubator at 37° C. Cells were untreated or treated with SCF compounds
(§2) A predefined number of either A549 or HCT-116 cells were allowed to grow in 24 wells plates (1×10^4 cells/well) for 3 days until cells reached 70% confluence. Then, cells were starved in RPMI or McCoy's 5A medium without FBS for 8 h. Then, the culture medium was replaced with RPMI or McCoy's 5A+0.2% FBS and 3 μM of test compounds were added to each well. Culture media were changed every 24 h and cells were treated for 48 h. After 48, the medium was removed from the culture plates and 0.05% trypsin-EDTA was used to detach the cells from the surface of the culture plates. The harvested cells were counted, both the viable and dead ones, using a Countess Automated Cell Counter (Invitrogen Inc.). Briefly, for each condition an appropriated cell dilution was prepared from the harvested cells and an aliquot was mixed with an equal volume of 0.4% trypan blue, and 10 μl was transferred into each side of a Countess™ chamber slide. All concentrations tested were performed in triplicata and were representative of 5 independent experiments.

HCT-116 cells = assay: in vivo tumor xenograft, HCT-116 in CD-1 nude mice; conditions: per os 618 mg/kg daily from the day after the tumor reach; vs control (corn oil)
Method: In vivo tumor xenograft experiments. Male and female CD-1 nude mice were obtained from Charles River Laboratories (Montreal, QC, Canada). All studies involving mice were approved by the institutional animal care committee. Human A549 or HCT-116 xenografts were established in 4-week-old CD-1 nude mice. Mice were subcutaneously inoculated with 0.2 ml of a solution of 1×10^6 A549 or HCT-116 cells on the right flank. Mice were randomly assigned into 2 groups, control (untreated) and compound 1, 5 or 6 treated (n=6 per group). […] Tumor volumes (V) were calculated using the formula: V=(a×b2)/2, where “a” is the largest superficial diameter and “b” the smallest.

[2] = human, in vivo
Method: Controlled amount of boiled pasta was eaten after the 4 h time point. An initial blood sample (400 μl) was collected using a lancet at a fingertip into heparin tubes followed by samples at 1, 2, 3, 4, 5, 6, 7 and 8 hour after ingestion. Plasma was separated and immediately analysed for fatty acid composition.
The relative bioavailability of fatty acids from composition 2 compared to fish oil is calculated with the formula:
The AUC (calculates area under the curve for concentration vs. time data) is calculated using linear trapezoidal rule. […] The relative bioavailability of compound 1 and compound 5 is calculated with the same formula:

[3] = tested on: A549 human lung cancer cell line; assay: cell growth assay (trypan blue cell count) on A549; type: cell-based; conditions: 48 h, read-out: growth inhibition of the cancer cells
Method: as §1, §2

A549 cells = assay: in vivo tumor xenograft, A549 in CD-1 nude mice; conditions: per os 618 mg/kg daily from the day after cell inoculation; vs control (corn oil)
Method: In vivo tumor xenograft experiments. Male and female CD-1 nude mice were obtained from Charles River Laboratories (Montreal, QC, Canada). All studies involving mice were approved by the institutional animal care committee. Human A549 or HCT-116 xenografts were established in 4-week-old CD-1 nude mice. Mice were subcutaneously inoculated with 0.2 ml of a solution of 1×10^6 A549 or HCT-116 cells on the right flank. Mice were randomly assigned into 2 groups, control (untreated) and compound 1, 5 or 6 treated (n=6 per group). Compound 1, 5 or 6 were administrated per os (618 mg/kg) daily following cell inoculation. Tumor volumes (V) were calculated using the formula: V=(a×b2)/2, where “a” is the largest superficial diameter and “b” the smallest.

| SMILES | inhibition at 3 µM [1] | tumor progression (tumor volume) (HCT-116 cells) | relative bioavailability of compound 1 compared to compound 5 [2] | inhibition at 3 µM [3] | tumor progression (tumor volume) (A549 cells) |
| --- | --- | --- | --- | --- | --- |
| CC/C=C\C/C=C\C/C=C\C/C=C\C/C=C\CCCCCC(=O)OCC(O)CO (stereo not shown) [compound 1] | > 50% | tumor progression was immediately stopped and tumor volume significantly decrease over time | 2.20 |  |  |
| CC/C=C\C/C=C\C/C=C\C/C=C\C/C=C\C/C=C\CCC(=O)OCC(O)CO (stereo not shown) [compound 5] |  |  |  | > 50% | tumor progression was significantly reduced |
| CC/C=C\C/C=C\C/C=C\C/C=C\C/C=C\CCCC(=O)OCC(O)CO (stereo not shown) [compound 6] | > 50% | tumor progression was immediately stopped and tumor volume slightly decrease over time |  |  |  |
